Reference: patent US9790217B2, “Pyridinyloxy- and phenyloxy-pyrazolyl compounds” (Hoffmann-La Roche Inc., priority 2014, dated 2017)

Assays:
[1] = target: human CYP11B2 (Homo sapiens (Human), UniProt P19099); test: G-402 cellular enzyme assay, human CYP11B2 (aldosterone release, HTRF); format: cell-based; settings: G-402 cells expressing human CYP11B2; 1 μM Deoxycorticosterone
Text: (§1) Herein we identified the use of the G-402 cell line as a host cell to ectopically express (transiently or stably) enzymes of the CYP11 family. Specifically we developed stable G-402 cells expressing ectopically human CYP11B1, human CYP11B2, human CYP11A1, cynmolgus CYP11B1 or cynomolgus CYP11B2 enzyme activity. Importantly the identified cell line G-402 expresses co-factors (adrenodoxin and adrenodoxin reductase) important for the activity of the CYP11 family and no relevant enzyme activity of the CYP11 family (in comparison to H295R cells) was detected in these cells. Therefore the G-402 cell line is uniquely suited as a host cell for the ectopic expression of enzymes from the CYP11 family.
(§2) G-402 cells can be obtained from ATCC (CRL-1440) and were originally derived from a renal leiomyoblastoma.
(§3) The expression plasmids contains the ORF for either human/cyno CYP11B1 or CYP11B2 under the control of a suitable promoter (CMV-promoter) and a suitable resistance marker (neomycin). Using standard techniques the expression plasmid is transfected into G-402 cells and these cells are then selected for expressing the given resistance markers. Individual cell-clones are then selected and assessed for displaying the desired enzymatic activity using 11-Deoxycorticosterone (Cyp11B2) or 11-Deoxycortisol (Cyp11B1) as a substrate.
(§4) G-402 cells expressing CYP11 constructs were established as described above and maintained in McCoy's 5a Medium Modified, ATCC Catalog No. 30-2007 containing 10% FCS and 400 μg/ml G418 (Geneticin) at 37° C. under an atmosphere of 5% CO2/95% air. Cellular enzyme assays were performed in DMEM/F12 medium containing 2.5% charcoal treated FCS and appropriate concentration of substrate (0.3-10 uM 11-Deoxycorticosterone, 11-Deoxycortisol or Corticosterone). For assaying enzymatic activity, cells were plated onto 96 well plates and incubated for 16 h. An aliquot of the supernatant is then transferred and analyzed for the concentration of the expected product (Aldosterone for CYP11B2; Cortisol for CYP11B1). The concentrations of these steroids can be determined using HTRF assays from CisBio analyzing either Aldosterone or Cortisol.
(§5) Inhibition of the release of produced steroids can be used as a measure of the respective enzyme inhibition by test compounds added during the cellular enzyme assay. The dose dependent inhibition of enzymatic activity by a compound is calculated by means of plotting added inhibitor concentrations (x-axes) vs. measured steroid/product level (y-axes). The inhibition is then calculated by fitting the following 4-parameter sigmoidal function (Morgan-Mercer-Flodin (MMF) model) to the raw data points using the least squares method:
(§6) [formula] wherein, A is the maximum y value, B is the EC50 factor determined using XLFit, C is the minimum y value and D is the slope value.
(§7) EC50 values for compounds claimed herein were tested with the G402-based assay system described. Cyp11B2 enzyme activity was tested in presence of 1 μM Deoxycorticosterone and variable amounts of inhibitors; Cyp11B1 enzyme activity was tested in presence of 1 μM Deoxycortisol and variable amounts of inhibitors.

[2] = target: human CYP11B1 (Homo sapiens (Human), UniProt P15538); test: G-402 cellular enzyme assay, human CYP11B1 (cortisol release, HTRF); format: cell-based; settings: G-402 cells expressing human CYP11B1; 1 μM Deoxycortisol
Text: as §1, §2, §3, §4, §5, §6, §7

Sequence of human CYP11B1 (P15538 25-503): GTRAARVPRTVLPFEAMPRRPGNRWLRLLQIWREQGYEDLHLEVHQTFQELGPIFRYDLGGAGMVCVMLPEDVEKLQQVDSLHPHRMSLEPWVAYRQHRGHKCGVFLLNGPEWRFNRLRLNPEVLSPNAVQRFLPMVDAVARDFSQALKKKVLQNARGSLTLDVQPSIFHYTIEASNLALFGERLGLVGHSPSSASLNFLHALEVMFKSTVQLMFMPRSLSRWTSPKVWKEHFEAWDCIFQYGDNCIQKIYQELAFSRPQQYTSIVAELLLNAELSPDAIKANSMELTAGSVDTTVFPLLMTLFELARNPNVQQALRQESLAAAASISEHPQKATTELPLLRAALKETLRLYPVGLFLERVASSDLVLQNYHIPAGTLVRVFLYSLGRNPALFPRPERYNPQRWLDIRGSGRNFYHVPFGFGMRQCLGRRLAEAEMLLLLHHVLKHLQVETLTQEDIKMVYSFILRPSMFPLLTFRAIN
Sequence of human CYP11B2 (P19099 25-503): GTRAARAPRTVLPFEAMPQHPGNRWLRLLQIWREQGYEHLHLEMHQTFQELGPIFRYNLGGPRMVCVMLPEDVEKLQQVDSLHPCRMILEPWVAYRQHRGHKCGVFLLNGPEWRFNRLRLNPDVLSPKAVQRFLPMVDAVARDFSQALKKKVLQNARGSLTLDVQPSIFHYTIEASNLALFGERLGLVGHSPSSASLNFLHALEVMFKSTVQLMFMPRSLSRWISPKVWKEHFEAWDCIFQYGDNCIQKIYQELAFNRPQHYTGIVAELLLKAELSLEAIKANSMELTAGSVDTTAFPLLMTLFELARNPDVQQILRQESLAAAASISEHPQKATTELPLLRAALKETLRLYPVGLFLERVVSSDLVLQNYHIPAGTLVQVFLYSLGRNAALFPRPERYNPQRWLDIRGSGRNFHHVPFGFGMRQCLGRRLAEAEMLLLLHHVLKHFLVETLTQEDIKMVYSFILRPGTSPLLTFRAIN

SMILES | EC50 [1] | EC50 [2]
FC(F)(F)c1ccc(Oc2cn[nH]c2-c2ccccc2Cl)cc1 [Example 23, 5-(2-Chlorophenyl)-4-[4-(trifluoromethyl)phenoxy]-1H-pyrazole] | 26.8 nM | 723 nM
N#Cc1ccc(Oc2cn[nH]c2-c2cccc(OCc3ccnc(Cl)c3)c2)cc1 [Example 55, 4-[[3-[3-[(2-Chloropyridin-4-yl)methoxy]phenyl]-1H-pyrazol-4-yl]oxy]benzonitrile] | 33.1 nM | 288 nM
Cn1cc(COc2cccc(-c3[nH]ncc3Oc3ccc(C#N)cc3)c2)cn1 [Example 56, 4-[[3-[3-[(1-Methylpyrazol-4-yl)methoxy]phenyl]-1H-pyrazol-4-yl]oxy]benzonitrile] | 9.5 nM | 93.6 nM
Fc1cccc(-c2[nH]ncc2Oc2ccc(Cl)cc2)c1Cl [Example 34, 5-(2-Chloro-3-fluorophenyl)-4-(4-chlorophenoxy)-1H-pyrazole] | 39.2 nM | 262 nM
CS(=O)(=O)N1CCN(C(=O)c2cccc(-c3[nH]ncc3Oc3ccc(C#N)cc3)c2)CC1 [Example 46, 4-[[3-[3-(4-Methylsulfonylpiperazine-1-carbonyl)phenyl]-1H-pyrazol-4-yl]oxy]benzonitrile] | 1050 nM | 10700 nM
N#Cc1ccc(Oc2cn[nH]c2-c2ccccc2OCc2ccncc2)cc1 [Example 76, 4-[[3-[2-(Pyridin-4-ylmethoxy)phenyl]-1H-pyrazol-4-yl]oxy]benzonitrile] | 0.2 nM | 6.8 nM
N#Cc1ccc(Oc2cn[nH]c2-c2ccccc2OCc2ccccn2)cc1 [Example 79, 4-[[3-[2-(Pyridin-2-ylmethoxy)phenyl]-1H-pyrazol-4-yl]oxy]benzonitrile] | 0.2 nM | 2.5 nM
N#Cc1ccc(Oc2cn[nH]c2-c2cnn(Cc3ccccc3)c2)cc1 [Example 68, 4-[[5-(1-Benzylpyrazol-4-yl)-1H-pyrazol-4-yl]oxy]benzonitrile] | 439 nM | 2400 nM
COc1ccccc1-c1[nH]ncc1Oc1ccc(Cl)cc1 [Example 4, 4-(4-Chlorophenoxy)-3-(2-methoxyphenyl)-1H-pyrazole] | 0.1 nM | 1.3 nM
N#Cc1ccc(Oc2cn[nH]c2-c2ccccc2O)cc1 [Example 78, 4-[[3-(2-Hydroxyphenyl)-1H-pyrazol-4-yl]oxy]benzonitrile] | 0.3 nM | 10.7 nM
N#Cc1ccc(Oc2cn[nH]c2-c2ccnc(Cl)c2)cc1 [Example 37, 4-[[5-(2-Chloropyridin-4-yl)-1H-pyrazol-4-yl]oxy]benzonitrile] | 317 nM | 10500 nM
CS(=O)(=O)c1ccc(-c2[nH]ncc2Oc2ccc(C#N)cc2)c(Cl)c1 [Example 43, 4-[[5-(2-Chloro-4-methylsulfonylphenyl)-1H-pyrazol-4-yl]oxy]benzonitrile] | 41.6 nM | 558 nM
Cn1nncc1COc1cccc(-c2[nH]ncc2Oc2ccc(C#N)cc2)c1 [Example 53, 4-[[3-[3-[(3-Methyltriazol-4-yl)methoxy]phenyl]-1H-pyrazol-4-yl]oxy]benzonitrile] | 23.8 nM | 198 nM
Cn1cc(-c2[nH]ncc2Oc2ccc(C#N)cc2)cn1 [Example 67, 4-[[3-(1-Methylpyrazol-4-yl)-1H-pyrazol-4-yl]oxy]benzonitrile] | 251 nM | 3270 nM
CS(=O)(=O)c1ccc(-c2[nH]ncc2Oc2ccc(Cl)cc2)cc1 [Example 12, 4-(4-Chlorophenoxy)-5-(4-methylsulfonylphenyl)-1H-pyrazole] | 26.4 nM | 600 nM
COc1ccc(-c2[nH]ncc2Oc2ccc(Cl)cc2)c(OC)c1 [Example 5, 4-(4-Chlorophenoxy)-3-(2,4-dimethoxyphenyl)-1H-pyrazole] | 2.5 nM | 11.6 nM
N#Cc1ccc(Oc2cn[nH]c2-c2cccc(CN3CCOCC3)c2)cc1 [Example 75, 4-[[3-[3-(Morpholin-4-ylmethyl)phenyl]-1H-pyrazol-4-yl]oxy]benzonitrile] | 8.5 nM | 139 nM

SMILES | EC50 [1] | EC50 [2]
N#Cc1ccc(Oc2cn[nH]c2-c2cccc(C[n+]3cccc([O-])c3)c2)cc1 [Example 71, 1-[[3-[4-(4-Cyanophenoxy)-1H-pyrazol-3-yl]phenyl]methyl]pyridin-1-ium-3-olate] | 656 nM | 5880 nM
N#Cc1ccc(Oc2cn[nH]c2-c2cccc(Cl)c2F)cc1 [Example 30, 4-[[5-(3-Chloro-2-fluorophenyl)-1H-pyrazol-4-yl]oxy]benzonitrile] | 8 nM | 191 nM
CS(=O)(=O)c1ccc(-c2[nH]ncc2Oc2ccc(Cl)cc2)c(Cl)c1 [Example 42, 5-(2-Chloro-4-methylsulfonylphenyl)-4-(4-chlorophenoxy)-1H-pyrazole] | 29.8 nM | 345 nM
N#Cc1ccc(Oc2cn[nH]c2-c2ccccc2OCc2ccccc2)cc1 [Example 41, 4-[[5-(2-Phenylmethoxyphenyl)-1H-pyrazol-4-yl]oxy]benzonitrile] | 0.1 nM | 0.5 nM
Fc1cc(C(F)(F)F)ccc1-c1[nH]ncc1Oc1ccc(Cl)cc1 [Example 13, 4-(4-Chlorophenoxy)-5-[2-fluoro-4-(trifluoromethyl)phenyl]-1H-pyrazole] | 408 nM | 2470 nM
N#Cc1ccc(Oc2cn[nH]c2C2CCCN(C(=O)c3cccnc3)C2)cc1 (racemic) [Example 64, (rac)-4-[[3-[1-(Pyridine-3-carbonyl)piperidin-3-yl]-1H-pyrazol-4-yl]oxy]benzonitrile] | 405 nM | 8160 nM
CC(=O)N1CCCC(c2[nH]ncc2Oc2ccc(C#N)cc2)C1 (racemic) [Example 62, (rac)-4-[[3-(1-Acetylpiperidin-3-yl)-1H-pyrazol-4-yl]oxy]benzonitrile] | 370 nM | 2280 nM
Fc1cc(Cl)ccc1-c1[nH]ncc1Oc1ccc(Cl)cc1 [Example 11, 5-(4-Chloro-2-fluorophenyl)-4-(4-chlorophenoxy)-1H-pyrazole] | 45.8 nM | 433 nM
FC(F)(F)Oc1ccccc1-c1[nH]ncc1Oc1ccc(Cl)cc1 [Example 7, 4-(4-Chlorophenoxy)-5-[2-(trifluoromethoxy)phenyl]-1H-pyrazole] | 24.4 nM | 861 nM
N#Cc1ccc(Oc2cn[nH]c2-c2cccc(OCc3cccnc3)c2)cc1 [Example 51, 4-[[3-[3-(Pyridin-3-ylmethoxy)phenyl]-1H-pyrazol-4-yl]oxy]benzonitrile] | 9.5 nM | 51.3 nM
Clc1ccc(Oc2cn[nH]c2-c2ccccc2Cl)cc1 [Example 6, 4-(4-Chlorophenoxy)-5-(2-chlorophenyl)-1H-pyrazole] | 2.6 nM | 51.8 nM
N#Cc1ccc(Oc2cn[nH]c2C2CCCN(C(=O)c3cccnc3)C2)c(F)c1 (racemic) [Example 91, (rac)-3-Fluoro-4-[[3-[1-(pyridine-3-carbonyl)piperidin-3-yl]-1H-pyrazol-4-yl]oxy]benzonitrile] | 1260 nM | 9010 nM
Cn1cc(C(=O)N2CCN(Cc3[nH]ncc3Oc3ccc(C#N)cc3)CC2)cn1 [Example 88, 4-[[5-[[4-(1-Methylpyrazole-4-carbonyl)piperazin-1-yl]methyl]-1H-pyrazol-4-yl]oxy]benzonitrile] | 147 nM | 25900 nM
N#Cc1ccc(Oc2cn[nH]c2C2CCCN(C(=O)c3ccccn3)C2)cc1 (racemic) [Example 65, (rac)-4-[[3-[1-(Pyridine-2-carbonyl)piperidin-3-yl]-1H-pyrazol-4-yl]oxy]benzonitrile] | 1410 nM | 5910 nM
CCOC(=O)c1ccccc1-c1[nH]ncc1Oc1ccc(C#N)cc1 [Example 39, Ethyl 2-[4-(4-cyanophenoxy)-1H-pyrazol-3-yl]benzoate] | 34.2 nM | 1160 nM
Fc1c(Cl)cccc1-c1[nH]ncc1Oc1ccc(Cl)cc1 [Example 31, 5-(3-Chloro-2-fluorophenyl)-4-(4-chlorophenoxy)-1H-pyrazole] | 191 nM | 1820 nM
